In patent US3963745A, “Method for controlling emesis with N-(1-substituted-3-pyrrolidinyl)benzamides and thiobenzamides” (A. H. Robins Company, Incorporated, priority 1974, dated 1976):
Counter-ions that a name gives are not always drawn. Like-named read-outs stand apart in the source and are kept apart here.

Key:
Type in all cases: in vivo
[1] = system: apomorphine-induced emesis; test: apomorphine-induced emesis in dogs (anti-emetic effect); settings: for ED50: Canis lupus familiaris
Procedure: The anti-emetic properties of the compounds of Formulae I and II were established using a modification of the methods of Chen and Ensor, J. Pharmac. Exp. Ther. 98: 245-250 (1950) and of Leonard et al, J. Pharmac. Exp. Ther. 154, 339-345 (1966). Drug activity was assessed by its ability to reduce the frequency of apomorphine-induced emesis in dogs. The dogs were prescreened for fairly constant emetic responses to the subcutaneous administration of 0.1 mg./kg. of apomorphine hydrochloride, and those which vomited five or more times in the 40-minute period after apomorphine administration were selected for drug studies.
Groups of three dogs were used in preliminary tests and for the determinations of time of peak drug effect. Dose response curves were usually obtained using four drug-treated groups; each group contained at least three dogs. The dogs were fed approximately 17 hours prior to a test. Drugs were administered and at suitable intervals the dogs received 0.1 mg/kg of apormorphine hydrochloride subcutaneously. Frequency of emesis was determined during the next 40 minutes and emesis was counted as the actual expulsion of stomach contents.
In oral studies, drugs were administered in gelatin capsules (controls received an empty capsule). In the subcutaneous studies, drugs were administered in distilled water and/or polyethylene glycol-300.
Dogs were re-used at intervals of not less than one week. The ED50 is the dose which reduces the frequency of emesis of drug treated dogs to a value 50% below that of controls. Mean frequency of emesis for each drug treated group was compared with a mean control value derived by pooling the prior control emetic frequencies for all dogs used on that test day. The difference is expressed as a percentage decrease relative to controls. The per cent decrease in mean frequency of emesis for each drug-treated group (ordinate) was plotted against log dose (abscissa) on semi-log graph sheets. The ED50 was calculated by the method of Goldstein (Biostatistics, An Introductory Test; Pages 156-161; the MacMillan Co., New York, 1964).

catalepsy in rats [2] = test: Catalepsy in rats; settings: Table 7, rats, IP
Procedure: (§1) Drugs were blind tested with positive and negative controls. The procedure used is a modification of the method previously described by Tedeschi et al., Archs. Int. Pharmacodyn. Ther. 122, 129-143 (1959). The modified procedure is as follows.
(§2) Groups of six rats are dosed (IP) with drugs in saline solution and tested hourly over a 6 hour period. A phenothiazine or non-phenothiazine reference standard is tested concomitantly as a positive control; negative controls receive only the saline vehicle. After administration the rats are positioned hourly with each foot on a No. 7 rubber stopper. A rat is considered cataleptic if it remains immobile on the stoppers for five seconds or longer at two or more consecutive hourly observation intervals. […] Exp. Ther. 96, 99-113 (1949).

Catalepsy in rats [3] = settings: rat, in vivo, ip
Procedure: as §1, §2

[4] = sc, Table 4, dogs, subcutaneous, doses expressed as free base, read-out: ED50, Anti-Emetic Effect of Subcutaneous Administration
[5] = sc, Table 7, dogs, subcutaneous, as free base, read-out: Anti-Apomorphine Effect ED50
[6] = sc, read-out: ED50, Anti-Emetic Effect of Subcutaneous Administration
[7] = sc, Table 6, dogs, subcutaneous, as free base, read-out: Anti-Apomorphine Effect ED50
[8] = Table 5, dogs, oral, doses expressed as free base, read-out: ED50, Anti-Emetic Effect of Oral Administration

With `O=C(NC1CCN(C2CCCCC2)C1)c1cccc(Br)c1` (stereo not drawn) [Example 1, N-(1-Cyclohexyl-3-pyrrolidinyl)-3-bromobenzamide] the ED50 [1, 4] was 0.4 mg/kg.
`O=C(NC1CCN(C2CCCCC2)C1)c1ccccc1F` (stereo not drawn) [Example 2, N-(1-Cyclohexyl-3-pyrrolidinyl)-2-fluorobenzamide hydrochloride] showed an ED50 [1, 4] of 1.6 mg/kg.
`CN(C(=O)c1ccc(N)cc1)C1CCN(C2CCCCC2)C1` (stereo not drawn) [Example 4, 4-Amino-N-(1-cyclohexyl-3-pyrrolidinyl)-N-methylbenzamide Cyclohexanesulfamate] gave an ED50 [1, 5] of 0.27 mg/kg, an ED50 ([1]; sc, dogs, subcutaneous, cyclohexanesulfamate salt dose, read-out: ED50 for subcutaneous administration) of 0.43 mg/kg and an ED50 ([1]; sc, dogs, subcutaneous, expressed as free base (Example 1P), read-out: ED50 for subcutaneous administration, expressed as free base) of 0.27 mg/kg. For the same compound, the blockage of apomorphine induced emesis ([1]; dogs, oral capsules 2.5 mg./kg., apomorphine after two hours) was 95%, the blockage of emesis ([1]; dogs, subcutaneous 5.0 mg./kg. (3.12 mg./kg. as free base), apomorphine one hour later, 40-minute period) was 100% and the “Catalepsy (ED50 or other): no catatonia up to dose” value (catalepsy in rats [2]; as free base) was “no catatonia to 125”.
`CN(C)c1ccc(C(=O)N(C)C2CCN(C3CCCCC3)C2)cc1` (stereo not drawn) [Example 6, N-(1-Cyclohexyl-3-pyrrolidinyl)-p-dimethylamino-N-methylbenzamide Fumarate] gave an ED50 [1, 4] of 1.1 mg/kg.
Compound `CC(=O)Nc1ccc(C(=O)NC2CCN(C3CCCCC3)C2)cc1` (stereo not drawn) [Example 7, N-(1-Cyclohexyl-3-pyrrolidinyl)-4-acetamidobenzamide] has an ED50 [1, 6] of 2.4 mg/kg.
`CN1CCC(NC(=O)c2ccccc2)C1.O=C(O)/C=C/C(=O)O` (stereo not drawn) [Example 8(A), N-(1-Methyl-3-pyrrolidinyl)benzamide Fumarate, reference compound] gave an ED50 [1, 7] of 3.2 mg/kg.
For `COc1cc(N)c(Cl)cc1C(=O)NC1CCN(C)C1` (stereo not drawn) [Example 8(B), 4-Amino-5-chloro-2-methoxy-N-(1-methyl-3-pyrrolidinyl)benzamide, reference compound], the ED50 [1, 7] was 0.053 mg/kg.
In the case of `CNc1ccc(C(=O)N(C)C2CCN(C3CCCCC3)C2)cc1.Cl.Cl` (stereo not drawn) [Example 9, 4-Methylamino-N-(1-cyclohexyl-3-pyrrolidinyl)-N-methylbenzamide Dihydrochloride], the ED50 [1, 4] is reported as 0.5 mg/kg.
Compound `O=C(NC1CCN(C2CCCCC2)C1)c1ccc(F)cc1` (stereo not drawn) [Example 10] has an ED50 [1, 6] of 0.15 mg/kg and an ED50 [1, 8] of 1.5 mg/kg.
For `O=C(NC1CCN(C2CCCCC2)C1)c1ccc(Br)cc1` (stereo not drawn) [Example 11], the ED50 [1, 4] was 0.7 mg/kg.
`O=C(NC1CCN(C2CCCCC2)C1)c1cc([N+](=O)[O-])cc([N+](=O)[O-])c1` (stereo not drawn) [Example 12] showed an ED50 [1, 6] of 0.15 mg/kg.
In the case of `O=C(NC1CCN(C2CCCCC2)C1)c1ccc(Cl)c(Cl)c1` (stereo not drawn) [Example 13], the ED50 [1, 4] is reported as 0.28 mg/kg.
Compound `CCOc1ccc(C(=O)NC2CCN(C3CCCCC3)C2)cc1OCC` (stereo not drawn) [Example 15] has an ED50 [1, 4] of 0.66 mg/kg.
Compound `O=C(NC1CCN(C2CCCCC2)C1)c1cccc(C(F)(F)F)c1` (stereo not drawn) [Example 16] has an ED50 [1, 4] of 0.18 mg/kg.
For `O=C(NC1CCN(C2CCCCC2)C1)c1ccc(Cl)cc1` (stereo not drawn) [Example 17], the ED50 [1, 4] was 0.28 mg/kg.
For `COc1cc(C(=O)NC2CCN(C3CCCCC3)C2)cc(OC)c1OC` (stereo not drawn) [Example 18], the ED50 [1, 4] was 0.4 mg/kg.
`O=C(NC1CCN(C2CCCCC2)C1)c1ccc(I)cc1` (stereo not drawn) [Example 20] gave an ED50 [1, 4] of 1.25 mg/kg.
`Nc1ccc(C(=O)NC2CCN(C3CCCCC3)C2)cc1` (stereo not drawn) [Example 23] showed an ED50 [1, 4] of 1.67 mg/kg, an ED50 [1, 5] of 1.7 mg/kg and an ED50 [1, 8] of 2.5 mg/kg. The “Catalepsy, percentage of rats cataleptic” value (catalepsy in rats [2]; at 94.2 mg/kg as free base) was 33%.
Work on `O=C(NC1CCN(C2CCCCC2)C1)c1ccccc1` (stereo not drawn) [Example 24] yielded an ED50 [1, 4] of 0.28 mg/kg and an ED50 [1, 7] of 0.28 mg/kg.
Compound `O=C(NC1CCN(C2CCCCC2)C1)c1ccc([N+](=O)[O-])cc1` (stereo not drawn) [Example 25] has an ED50 [1, 4] of 2.03 mg/kg, an ED50 [1, 5] of 1.8 mg/kg and a TD50 at 6 h (Catalepsy in rats [3]) of 28 mg/kg.
For `CN(C(=O)c1ccc([N+](=O)[O-])cc1)C1CCN(C2CCCCC2)C1` (stereo not drawn) [Example 27], the ED50 [1, 5] was 10 mg/kg, the “Catalepsy (ED50 or other): no catatonia up to dose” value (catalepsy in rats [2]; as free base) was “no catatonia to 100” and the lethal dose (catalepsy in rats [2]; as free base) was 100 mg/kg.
Compound `O=C(NC1CCN(C2CCCCC2)C1)c1ccc(Cl)cc1Cl` (stereo not drawn) [Example 32] has an ED50 [1, 6] of 2.4 mg/kg.
For `CSc1ccc(C(=O)NC2CCN(C3CCCCC3)C2)cc1` (stereo not drawn) [Example 33], the ED50 [1, 4] was 0.88 mg/kg.
For `COc1ccc(C(=O)NC2CCN(C3CCCCC3)C2)c(OC)c1` (stereo not drawn) [Example 34], the ED50 [1, 4] was 0.026 mg/kg.
Compound `CN(C)c1ccc(C(=O)NC2CCN(C3CCCCC3)C2)cc1` (stereo not drawn) [Example 35] has an ED50 [1, 4] of 0.89 mg/kg.
In the case of `Cc1ccc(C(=O)NC2CCN(C3CCCCC3)C2)cc1` (stereo not drawn) [Example 36], the ED50 [1, 4] is reported as 0.31 mg/kg.
`COc1cc(N)c(Cl)cc1C(=O)NC1CCN(C2CCCCC2)C1` (stereo not drawn) [Example 37] gave an ED50 [1, 4] of 0.003 mg/kg and an ED50 [1, 7] of 0.003 mg/kg.
